Measurements as given in patent US20200247812A1 (Integral Biosciences Private Limited, priority 2018, published 2020).
Structures can show the parent of a compound that is named as a salt.

Key:
ALK 5 = target: T1, ALK 5 (Homo sapiens, UniProt P36897); assay: In vitro kinase assay (ALK5 IC50, LanthaScreen Terbium labeled TR-FRET); assay type: biochemical; conditions: TGF-β kinase 6 nM, ATP 10 μM, read-out: Enzyme Activity ALK 5 IC50
T1 sequence (P36897 34-503): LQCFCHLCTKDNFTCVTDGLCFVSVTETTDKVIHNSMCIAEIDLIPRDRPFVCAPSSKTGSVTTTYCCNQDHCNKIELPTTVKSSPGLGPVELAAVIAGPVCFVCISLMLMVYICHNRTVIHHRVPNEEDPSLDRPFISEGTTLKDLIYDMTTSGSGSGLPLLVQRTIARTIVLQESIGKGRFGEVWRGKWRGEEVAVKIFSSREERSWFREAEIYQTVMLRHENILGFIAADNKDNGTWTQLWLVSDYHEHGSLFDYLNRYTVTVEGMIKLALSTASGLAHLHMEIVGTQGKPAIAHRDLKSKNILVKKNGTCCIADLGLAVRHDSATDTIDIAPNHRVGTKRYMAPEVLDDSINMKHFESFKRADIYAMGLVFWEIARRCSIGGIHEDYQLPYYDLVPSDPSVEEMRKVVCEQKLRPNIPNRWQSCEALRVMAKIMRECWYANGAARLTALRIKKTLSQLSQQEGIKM
Summary of the method: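 LanthaScreen Tb TR-FRET: ALK5 (6 nM) preincubated 10 min with 3-fold diluted compounds, then 10 μM ATP and 200 nM fluorescent PolyGT substrate added for 1 h at room temperature. Stopped with EDTA/Tb antibody; 520/495 nm emission read. IC50 from four-parameter fit versus DMSO and no-enzyme controls.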

MDA_MB-231 = assay: Cell viability assay (resazurin), MDA_MB-231; assay type: cell-based; conditions: Homo sapiens, MDA-MB-231, 72-144 hr
Protocol: (§1) Different cell lines such as pancreatic, (MIA PaCa-2; ATCC®CRL-1420™ & and Panc-1; CRL-1469™), liver carcinoma (HepG2; ATCC® HB-8065™), lung epithelial carcinoma (A549; ATCC® CCL-185™) and others were seeded in their respective medium (DMEM, Cat #10569044, MEM, Cat #41090036; RPMI, Cat #22400089; all with 10% FBS, Gibco, ThermoFisher) at a cell count of 3000 cells per 100 μl per well in a 96 well edge plate (167425; ThermoFisher). Cells were allowed to grow at 37° C. for 24 hr in 5% CO2 (culture conditions) in a Nuaire incubator (humidified). Serially diluted compounds (100 μl) were added to the culture plate 24 hr later and the cultures were further incubated in culture conditions for specified time depending on doubling time of specific cell line (ranging from 72-144 hr). Experiment was terminated at the completion of incubation time with the drug by replacing the medium with 100 μl of 1 mM of resazurin (R7017; Sigma) prepared in respective culture medium and the plates were further incubated in culture conditions for 4 hr. Fluorescence was then measured using a multimodal plate reader (Biotek Synergy Neo) at an excitation wavelength of 535 nm and emission wavelength of 590 nm to obtain relative fluorescence units. Data analysis was done by subtracting the background fluorescence (only medium blank) value from each reading and then normalizing with the vehicle control (DMSO treated cells) to obtain percent survival/proliferation. Percent survival at different doses was used to calculate IC50 by fitting the curve to the “four-parameter variable slope logistic model” using Prism Graph Pad.

A549 = assay: Cell viability assay (resazurin), A549; assay type: cell-based; conditions: Homo sapiens, 72-144 hr
Protocol: as §1

HepG2 = assay: Cell viability assay (resazurin), HepG2; assay type: cell-based; conditions: Homo sapiens, 72-144 hr
Protocol: as §1

A427 = assay: Cell viability assay (resazurin), A427; assay type: cell-based; conditions: Homo sapiens, A-427, 72-144 hr
Protocol: as §1

Panc-10.05 = assay: Cell viability assay (resazurin), Panc-10.05; assay type: cell-based; conditions: Homo sapiens, Panc1005, 72-144 hr
Protocol: as §1

HCT116 = assay: Cell viability assay (resazurin), HCT116; assay type: cell-based; conditions: Homo sapiens, HCT-116, 72-144 hr
Protocol: as §1

THP1 = assay: Cell viability assay (resazurin), THP1; assay type: cell-based; conditions: Homo sapiens, THP-1, 72-144 hr
Protocol: as §1

[1] = tested on: phosphorylation of Smad-2 in THP-1 cells; assay: Inhibition of phosphorylation of Smad-2 in THP-1 cells (Phospho-Smad2 ELISA); assay type: cell-based
MCF7 = assay: Cell viability assay (resazurin), MCF7; assay type: cell-based; conditions: Homo sapiens, 72-144 hr
Protocol: as §1

AsPC-1 = assay: Cell viability assay (resazurin), AsPC-1; assay type: cell-based; conditions: Homo sapiens, ASPC1, 72-144 hr
Protocol: as §1

human PBMC's = assay: Viability in CD3e/CD28 activated human PBMC's (resazurin); assay type: cell-based; conditions: 72 hr
Protocol: IC50 values of compounds for determining viability in CD3e/CD28 activated human PBMC's (hPBMC-34033, Cat # CC-2702; Lonza) cultured in LGM3 medium, Cat # CC #3211; Lonza). Human PBMC's (0.25×10^6 cells/well) were activated with Anti-human CD3e (0.5 μg/ml, coated overnight at 4° C.; Cat #16-0037-81, eBioscience) and then incubated with serial dilutions of compounds (3 fold, 8 point dose response starting at 30 μM) for 30 min at 37° C., 5% CO2 in an incubator (cell culture conditions) prior to treating them with Anti-human CD28 (0.25 μg/ml soluble; Cat #16-0289-81, eBiosciences). Human PBMC's were further incubated under cell culture conditions for 72 hr following which experiment was terminated by replacing the medium with 100 μl of 1 mM of resazurin (R7017; Sigma) prepared in culture medium and the plates were further incubated in culture conditions for 4 hr. Fluorescence was then measured using a multimodal plate reader (Biotek Synergy Neo) at an excitation wavelength of 535 nm and emission wavelength of 590 nm to obtain relative fluorescence units. Data analysis was done by subtracting the background fluorescence (only medium blank) value from each reading and then normalizing with the vehicle control (DMSO treated cells) to obtain percent survival/proliferation. Percent survival at different doses was used to calculate IC50 by fitting the curve to the “four-parameter variable slope logistic model” using Prism Graph Pad.

22Rv1 = assay: Cell viability assay (resazurin), 22Rv1; assay type: cell-based; conditions: Homo sapiens, 72-144 hr
Protocol: as §1

Panc-1 = assay: Cell viability assay (resazurin), Panc-1; assay type: cell-based; conditions: Homo sapiens, 72-144 hr
Protocol: Different cell lines such as pancreatic, (MIA PaCa-2; ATCC®CRL-1420™ & and Panc-1; CRL-1469™), liver carcinoma (HepG2; ATCC® HB-8065™), lung epithelial carcinoma (A549; ATCC® CCL-185™) and others were seeded in their respective medium (DMEM, Cat #10569044, MEM, Cat #41090036; RPMI, Cat #22400089; all with 10% FBS, Gibco, ThermoFisher) at a cell count of 3000 cells per 100 μl per well in a 96 well edge plate (167425; ThermoFisher). Cells were allowed to grow at 37° C. for 24 hr in 5% CO2 (culture conditions) in a Nuaire incubator (humidified). Serially diluted compounds (100 μl) were added to the culture plate 24 hr later and the cultures were further incubated in culture conditions for specified time depending on doubling time of specific cell line (ranging from 72-144 hr). […] Fluorescence was then measured using a multimodal plate reader (Biotek Synergy Neo) at an excitation wavelength of 535 nm and emission wavelength of 590 nm to obtain relative fluorescence units. Data analysis was done by subtracting the background fluorescence (only medium blank) value from each reading and then normalizing with the vehicle control (DMSO treated cells) to obtain percent survival/proliferation. […]

MV-4-11 = assay: Cell viability assay (resazurin), MV-4-11; assay type: cell-based; conditions: Homo sapiens, MV4-11, 72-144 hr
Protocol: as §1

[2] = tested on: phosphorylation of Smad-2 in THP-1 cells; assay: Inhibition of phosphorylation of Smad-2 in THP-1 cells (Phospho-Smad2 ELISA); assay type: cell-based; conditions: 1.5 h, human TGF-β 20 ng/ml, 90 min, read-out: pSmad2 IC50
Protocol: IC50 values of compounds for determining inhibition of phosphorylation of Smad-2 in THP-1 cells (ATCC, Cat # ATCC® TIB-202™) cultured in RPMI medium, (Cat #22400089; with 10% FBS, Gibco, ThermoFisher). THP-1 cells (1.0×10^6 cells/well; 6 well plate) were incubated with serial dilutions of compounds (3 fold, 5 point dose response starting at 10 μM) for 60 min at 37° C., 5% CO2 in an incubator (cell culture conditions) prior to treating them with Recombinant Human TGF-β (20 ng/ml soluble; Cat #100-21, Peprotech) for 90 min. The cells were then pelleted and processed for protein estimation and evaluation of pSmad using ELISA kit from Cell Signaling (PathScan(R) Phospho-Smad2 (Ser465/467) Sandwich ELISA; Cat #7348C) as per manufacturer's protocol. Data analysis was done by subtracting the background absorbance (only negative control) value from each reading and then normalizing with the vehicle control (DMSO treated cells) to obtain percent levels of pSmad-2. Percent inhibition thus obtained (by subtracting expression levels of pSmad from 100) at different doses was used to calculate IC50 by fitting the curve to the “four-parameter variable slope logistic model” using Prism Graph Pad.

CC(=O)Nc1cc(Nc2cc(-c3cc(Cl)ccc3F)c(=O)[nH]c2N(C)C)ccn1 [Compound 1.40, N-(4-((5-(5-chloro-2-fluorophenyl)-2-(dimethylamino)-6-oxo-1,6-dihydropyridin-3-yl)amino)pyridin-2-yl)acetamide]
IC50 (ALK 5): ≤ 0.5 µM | IC50 (MDA_MB-231): 12.6 µM | IC50 (A549): 28.5 µM | IC50 (HepG2): 12.6 µM | IC50 (A427): 15.2 µM | IC50 (Panc-10.05): 28.5 µM | IC50 (HCT116): 13.4 µM | IC50 (THP1): 6.09 µM

CN(C)c1[nH]c(=O)c(-c2cc(Cl)ccc2F)cc1Nc1ccncc1C(N)=O [Compound 1.32, 4-((5-(5-chloro-2-fluorophenyl)-2-(dimethylamino)-6-hydroxypyridin-3-yl)amino)nicotinamide]
IC50 (ALK 5): ≤ 0.5 µM | IC50 (MDA_MB-231): > 30 µM | % Inhibition of pSmad2 ([1]; 3 μg): 51.3% | % Inhibition of pSmad2 ([1]; 10 μg): 50.5% | IC50 (MCF7): > 10 µM | IC50 (A549): > 30 µM | IC50 (A427): > 30 µM | IC50 (Panc-10.05): > 30 µM | IC50 (AsPC-1): > 30 µM | IC50 (HCT116): > 30 µM

C[C@@H](CO)NC(=O)c1cnccc1Nc1cc(-c2cc(Cl)ccc2F)c(=O)[nH]c1N(C)C [Compound 1.10, (S)-4-((5-(5-chloro-2-fluorophenyl)-2-(dimethylamino)-6-hydroxypyridin-3-yl)amino)-N-(1-hydroxypropan-2-yl)nicotinamide]
IC50 (ALK 5): ≤ 0.5 µM | % Inhibition of pSmad2 ([1]; 3 μg): 36.7% | % Inhibition of pSmad2 ([1]; 10 μg): 45.1% | IC50 (human PBMC's): 24.5 µM

CC(C)c1[nH]c(=O)c(-c2cc(Cl)ccc2F)cc1Nc1ccncc1C(N)=O [Compound 1.43, 4-((5-(5-chloro-2-fluorophenyl)-2-isopropyl-6-oxo-1,6-dihydropyridin-3-yl)amino)nicotinamide]
IC50 (ALK 5): ≤ 0.5 µM | IC50 (MDA_MB-231): > 30 µM | IC50 (human PBMC's): > 30 µM | IC50 (MCF7): > 10 µM | IC50 (22Rv1): > 30 µM | IC50 (A549): > 30 µM | IC50 (HepG2): > 30 µM | IC50 (A427): > 30 µM | IC50 (Panc-1): > 30 µM

CC(=O)Nc1cc(Nc2cc(-c3cc(Cl)ccc3F)c(=O)[nH]c2C2CC2)ccn1 [Compound 1.69, N-(4-((5-(5-chloro-2-fluorophenyl)-2-cyclopropyl-6-oxo-1,6-dihydropyridin-3-yl)amino)pyridin-2-yl)acetamide]
IC50 (ALK 5): ≤ 0.5 µM | IC50 (MDA_MB-231): 15.3 µM | IC50 (MCF7): 18.7 µM | IC50 (HepG2): 15.7 µM | IC50 (A427): > 30 µM | IC50 (HCT116): > 30 µM | IC50 (THP1): 13 µM | IC50 (MV-4-11): 16.3 µM

CN(C)c1[nH]c(=O)c(-c2cc(Cl)ccc2F)cc1Nc1ccnc2[nH]ccc12 [Compound 1.12, 5-((1H-pyrrolo[2,3-b]pyridin-4-yl)amino)-3-(5-chloro-2-fluorophenyl)-6-(dimethylamino)pyridin-2-ol hydrochloride]
IC50 (ALK 5): ≤ 0.5 µM | IC50 (MDA_MB-231): 2.75 µM | % Inhibition of pSmad2 ([1]; 3 μg): 51.6% | % Inhibition of pSmad2 ([1]; 10 μg): 48.4% | IC50 (human PBMC's): 18.2 µM | IC50 (22Rv1): 1.53 µM | IC50 (A549): 2.77 µM | IC50 (HepG2): 2.64 µM | IC50 (A427): 3.1 µM | IC50 (Panc-10.05): 2.21 µM | IC50 (AsPC-1): 1.82 µM | IC50 (HCT116): 2.64 µM | IC50 (THP1): 0.635 µM

CCc1[nH]c(=O)c(-c2cc(Cl)ccc2F)cc1Nc1ccnc(NC(C)=O)c1 [Compound 1.70, N-(4-((5-(5-chloro-2-fluorophenyl)-2-ethyl-6-oxo-1,6-dihydropyridin-3-yl)amino)pyridin-2-yl)acetamide]
IC50 (ALK 5): ≤ 0.5 µM | IC50 (MDA_MB-231): > 30 µM | IC50 (MCF7): > 30 µM | IC50 (HepG2): 18.2 µM | IC50 (A427): > 30 µM | IC50 (HCT116): > 30 µM | IC50 (THP1): > 30 µM | IC50 (MV-4-11): 29.2 µM

CC(C)c1[nH]c(=O)c(-c2cc(Cl)ccc2F)cc1Nc1ccnc2c1CC(=O)N2 [Compound 1.61, 4-((5-(5-chloro-2-fluorophenyl)-2-isopropyl-6-oxo-1,6-dihydropyridin-3-yl)amino)-1,3-dihydro-2H-pyrrolo[2,3-b]pyridin-2-one]
IC50 (ALK 5): ≤ 0.5 µM | IC50 [2]: 1.33 µM | IC50 (MDA_MB-231): > 30 µM | IC50 (MCF7): > 30 µM | IC50 (HepG2): > 30 µM | IC50 (AsPC-1): > 30 µM | IC50 (HCT116): > 30 µM
